What was measured:
Assay in all cases: relative viability (nuclei count vs DMSO), 5 days (fraction); higher = more cells survive
Wnt-C59 + Pemetrexed = compound: CC1=NC=CC(=C1)C2=CC=C(C=C2)CC(=O)NC3=CC=C(C=C3)C4=CN=CC=C4 [Wnt-C59] + Nc1nc2[nH]cc(CCc3ccc(C(=O)N[C@@H](CCC(=O)O)C(=O)O)cc3)c2c(=O)[nH]1 [Pemetrexed] (partner 0.2 µM)
In short: (§1)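 Lung cancer cell lines were pin-tool dosed in 1536-well plates on the day after seeding, with either a lone drug or a fixed anchor-drug dose plus five library-drug doses (not always all listed) in √10 steps. Nuclei were counted on 4× images after 5 days. Relative viability is the ratio of treated-well to vehicle-well nuclei counts, with each value a median of duplicate plates.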

Wnt-C59 + Decitabine = compound: CC1=NC=CC(=C1)C2=CC=C(C=C2)CC(=O)NC3=CC=C(C=C3)C4=CN=CC=C4 [Wnt-C59] + Nc1ncn([C@H]2C[C@H](O)[C@@H](CO)O2)c(=O)n1 [Decitabine] (partner 2 µM)
In short: as §1

Lapatinib + Palbociclib = compound: CS(=O)(=O)CCNCc1ccc(-c2ccc3ncnc(Nc4ccc(OCc5cccc(F)c5)c(Cl)c4)c3c2)o1 [Lapatinib] + CC(=O)c1c(C)c2cnc(Nc3ccc(N4CCNCC4)cn3)nc2n(C2CCCC2)c1=O [Palbociclib] (partner 0.5 µM)
In short: as §1

Lapatinib + OSI-027 = compound: CS(=O)(=O)CCNCc1ccc(-c2ccc3ncnc(Nc4ccc(OCc5cccc(F)c5)c(Cl)c4)c3c2)o1 [Lapatinib] + COc1cccc2cc(-c3nc([C@H]4CC[C@H](C(=O)O)CC4)n4ncnc(N)c34)[nH]c12 [OSI-027] (partner 0.5 µM)
In short: as §1

## UMC-11
Wnt-C59 + Pemetrexed; first compound 0.001 µM
  relative viability: 0.756
Wnt-C59 + Pemetrexed; first compound 0.01 µM
  relative viability: 0.821
Wnt-C59 + Pemetrexed; first compound 0.03162 µM
  relative viability: 0.874
Wnt-C59 + Pemetrexed; first compound 0.1 µM
  relative viability: 0.76
Wnt-C59 + Decitabine; first compound 0.001 µM
  relative viability: 0.572
Wnt-C59 + Decitabine; first compound 0.01 µM
  relative viability: 0.607
Wnt-C59 + Decitabine; first compound 0.03162 µM
  relative viability: 0.559
Wnt-C59 + Decitabine; first compound 0.1 µM
  relative viability: 0.72
Lapatinib + Palbociclib; first compound 0.02 µM
  relative viability: 0.391
Lapatinib + Palbociclib; first compound 0.06325 µM
  relative viability: 0.347
Lapatinib + Palbociclib; first compound 0.2 µM
  relative viability: 0.301
Lapatinib + Palbociclib; first compound 0.6325 µM
  relative viability: 0.282
Lapatinib + Palbociclib; first compound 2 µM
  relative viability: 0.27
Lapatinib + OSI-027; first compound 0.02 µM
  relative viability: 0.461
Lapatinib + OSI-027; first compound 0.06325 µM
  relative viability: 0.427
Lapatinib + OSI-027; first compound 0.2 µM
  relative viability: 0.582
Lapatinib + OSI-027; first compound 0.6325 µM
  relative viability: 0.464
Lapatinib + OSI-027; first compound 2 µM
  relative viability: 0.465

From the supplement of paper PMC10307832
